Measurements reported in publication PMC8119466, “A screen of FDA-approved drugs identifies inhibitors of protein tyrosine phosphatase 4A3 (PTP4A3 or PRL-3)” (Scientific Reports, 2021).
Counter-ions that a name gives are not always drawn. Like-named read-outs stand apart in the source and are kept apart here.

Experiments:
Type in all cases: biochemical
recombinant PRL-1 = biological target: T1, recombinant PRL-1 (Homo sapiens, UniProt Q93096); assay: In vitro phosphatase assay (DiFMUP hydrolysis), PRL-1; also: test concentration or dose not given here
T1 construct: 6xHis (N, cleaved yes); made in house; host or cells: E. coli One Shot BL21 Star
T1 sequence (Q93096 1-173): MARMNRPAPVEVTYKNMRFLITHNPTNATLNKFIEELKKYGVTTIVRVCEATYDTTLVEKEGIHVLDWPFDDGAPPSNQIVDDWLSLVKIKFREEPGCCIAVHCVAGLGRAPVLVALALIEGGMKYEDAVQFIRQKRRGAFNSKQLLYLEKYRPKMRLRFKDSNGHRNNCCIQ

recombinant PRL-2 = biological target: T2, recombinant PRL-2 (Homo sapiens, UniProt Q12974); assay: In vitro phosphatase assay (DiFMUP hydrolysis), PRL-2;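 also: PRL-2 activity read as DiFMUP hydrolysis after 20 min at room temperature with drug, enzyme first pre-reduced at 4 °C for 20 min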
T2 construct: 6xHis (N, cleaved yes); made in house; host or cells: E. coli One Shot BL21 Star
T2 sequence (Q12974 1-167): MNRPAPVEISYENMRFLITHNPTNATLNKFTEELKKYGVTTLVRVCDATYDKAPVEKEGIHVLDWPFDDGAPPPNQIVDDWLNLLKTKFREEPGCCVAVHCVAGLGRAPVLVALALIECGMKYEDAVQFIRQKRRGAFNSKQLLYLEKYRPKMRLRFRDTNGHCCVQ

recombinant PRL-3 = biological target: T3, recombinant PRL-3 (Homo sapiens, UniProt O75365); assay: In vitro phosphatase assay (DiFMUP hydrolysis), PRL-3; also: test concentration or dose not given here
T3 construct: 6xHis (N, cleaved yes); made in house; host or cells: E. coli One Shot BL21 Star

[1] = FDA-approved drug screen, activity compared to DMSO

T3 sequence (O75365 whole entry): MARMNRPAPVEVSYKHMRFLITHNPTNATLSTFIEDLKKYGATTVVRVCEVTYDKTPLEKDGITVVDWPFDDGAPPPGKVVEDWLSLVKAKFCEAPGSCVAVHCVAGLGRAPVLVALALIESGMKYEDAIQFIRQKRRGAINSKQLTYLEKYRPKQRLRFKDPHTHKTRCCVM

SMILES | % Phosphatase Activity (compared to DMSO) PRL-1 (recombinant PRL-1; [1]) [%] | % Phosphatase Activity (compared to DMSO) PRL-2 (recombinant PRL-2; [1]) [%] | % Phosphatase Activity (compared to DMSO) PRL-3 (recombinant PRL-3; [1]) [%] | % Phosphatase Activity (compared to DMSO) PRL-1 (recombinant PRL-1) [%] | % Phosphatase Activity (compared to DMSO) PRL-2 (recombinant PRL-2) [%] | % Phosphatase Activity (compared to DMSO) PRL-3 (recombinant PRL-3) [%]
COc1ccc(/C=C/C(=O)Nc2ccccc2C(=O)O)cc1OC [Tranilast] | 88 | 73 | 82 | – | – | –
O=c1n(CCCN2CCN(c3cccc(Cl)c3)CC2)nc2ccccn12 [Trazodone HCl] | 146 | 142 | 93 | – | – | –
Cn1c(=O)cc(N2CCC[C@@H](N)C2)n(Cc2cc(F)ccc2C#N)c1=O [Trelagliptin] | 106 | 76 | 107 | – | – | –
CC1=C(/C=C/C(C)=C/C=C/C(C)=C/C(=O)O)C(C)(C)CCC1 [Tretinoin] | 78 | 77 | 46 | – | – | –
CC1(C)O[C@@H]2C[C@H]3[C@@H]4CCC5=CC(=O)C=C[C@]5(C)[C@@]4(F)[C@@H](O)C[C@]3(C)[C@]2(C(=O)CO)O1 [Triamcinolone Acetonide] | 99 | 95 | 78 | – | – | –
Oc1cc(Cl)ccc1Oc1ccc(Cl)cc1Cl [Triclosan] | 100 | 106 | 96 | – | – | –
CC(=O)Oc1cc(C(F)(F)F)ccc1C(=O)O [Triflusal] | 108 | 105 | 78 | – | – | –
OC(CCN1CCCCC1)(c1ccccc1)C1CCCCC1 (stereo not drawn) [Trihexyphenidyl hydrochloride] | – | – | – | 100 | 98 | 106
C[C@]12CC[C@H]3[C@@H](CC[C@@]45O[C@@H]4C(O)=C(C#N)C[C@]35C)[C@@H]1CC[C@@H]2O [Trilostane] | 97 | 110 | 88 | – | – | –
CCC(COC(=O)c1cc(OC)c(OC)c(OC)c1)(c1ccccc1)N(C)C (stereo not drawn) [Trimebutine] | 90 | 106 | 84 | – | – | –
COc1ccc(CN2CCNCC2)c(OC)c1OC [Trimetazidine dihydrochloride] | 95 | 93 | 80 | – | – | –
NC(CO)(CO)CO [Trometamol] | – | – | – | 102 | 105 | 82
O=C(O[C@H]1C[C@H]2CC[C@@H](C1)[N+]21CCCC1)C(O)(c1ccccc1)c1ccccc1 [Trospium chloride] | 109 | 109 | 83 | – | – | –
CC[C@H]1OC(=O)C[C@@H](O)[C@H](C)[C@@H](O[C@@H]2O[C@H](C)[C@@H](O[C@H]3C[C@@](C)(O)[C@@H](O)[C@H](C)O3)[C@H](N(C)C)[C@H]2O)[C@@H](CC=O)C[C@@H](C)C(=O)/C=C/C(C)=C/[C@@H]1CO[C@@H]1O[C@H](C)[C@@H](O)[C@@H](OC)[C@H]1OC.O=C(O)C(O)C(O)C(=O)O [Tylosin tartrate] | 95 | 93 | 81 | – | – | –
CC(C)Nc1cc(-c2c[nH]c(C(=O)N[C@H](CO)c3cccc(Cl)c3)c2)c(Cl)cn1 [Ulixertinib (BVD-523, VRT752271)] | 99 | 90 | 105 | – | – | –
COc1ccccc1N1CCN(CCCNc2cc(=O)n(C)c(=O)n2C)CC1.Cl [Urapidil HCl] | 98 | 97 | 92 | – | – | –
CCOC(N)=O [Urethane] | 99 | 100 | 91 | – | – | –

Now from value to compound, other results behind:

% Phosphatase Activity (compared to DMSO) PRL-1 (recombinant PRL-1; [1]) [%] | % Phosphatase Activity (compared to DMSO) PRL-2 (recombinant PRL-2; [1]) [%] | % Phosphatase Activity (compared to DMSO) PRL-3 (recombinant PRL-3; [1]) [%] | SMILES | % Phosphatase Activity (compared to DMSO) PRL-1 (recombinant PRL-1) [%] | % Phosphatase Activity (compared to DMSO) PRL-2 (recombinant PRL-2) [%] | % Phosphatase Activity (compared to DMSO) PRL-3 (recombinant PRL-3) [%]
93 | 96 | 85 | CC(=O)OCC(COC(C)=O)OC(C)=O [Triacetin] | – | – | –
91 | 97 | 81 | C[C@]12C=CC(=O)C=C1CC[C@H]1[C@@H]3C[C@@H](O)[C@](O)(C(=O)CO)[C@@]3(C)C[C@H](O)[C@@]12F [Triamcinolone] | – | – | –
7090 | 6324 | 3828 | Nc1nc(N)c2nc(-c3ccccc3)c(N)nc2n1 [Triamterene] | – | – | –
100 | 93 | 75 | NS(=O)(=O)c1cc2c(cc1Cl)NC(C(Cl)Cl)NS2(=O)=O (stereo not drawn) [Trichlormethiazide] | – | – | –
106 | 91 | 70 | CSc1nc2cc(Cl)c(Oc3cccc(Cl)c3Cl)cc2[nH]1 [Triclabendazole] | – | – | –
89 | 101 | 91 | O=c1[nH]c(=O)n([C@H]2C[C@H](O)[C@@H](CO)O2)cc1C(F)(F)F [Trifluridine] | – | – | –
94 | 97 | 90 | CC(CN(C)C)CN1c2ccccc2CCc2ccccc21 (stereo not drawn) [Trimipramine Maleate] | – | – | –
91 | 119 | 112 | CN(C)CCN(Cc1ccccc1)c1ccccn1 [Tripelennamine HCl] | – | – | –
95 | 110 | 79 | COc1cc(C(=O)NC2CCCNC2)cc(OC)c1OC (stereo not drawn) [Troxipide] | – | – | –
95 | 92 | 79 | CC(=O)[C@@]1(O)CC[C@H]2[C@@H]3CCC4=CC(=O)CCC4=C3[C@@H](c3ccc(N(C)C)cc3)C[C@@]21C [Ulipristal] | – | – | –
95 | 95 | 103 | Cn1ncc(Cl)c1-c1cc(C(=O)N[C@H](CN)Cc2ccc(F)c(F)c2)oc1Cl [Uprosertib (GSK2141795)] | – | – | –
100 | 93 | 69 | O=c1cc[nH]c(=O)[nH]1 [Uracil] | – | – | –
86 | 97 | 94 | O=c1ccn([C@@H]2O[C@H](CO)[C@@H](O)[C@H]2O)c(=O)[nH]1 [Uridine] | – | – | –
96 | 79 | 77 | C[C@H](CCC(=O)O)[C@H]1CC[C@H]2[C@@H]3[C@@H](O)C[C@@H]4C[C@H](O)CC[C@]4(C)[C@H]3CC[C@]12C [Ursodiol] | – | – | –
91 | 85 | 76 | CC(C)(C)C#Cc1cc(N(C(=O)[C@H]2CC[C@H](C)CC2)[C@H]2CC[C@H](O)CC2)c(C(=O)O)s1 [VX-222 (VCH-222, Lomibuvir)] | – | – | –
89 | 87 | 82 | Cc1cc(Nc2cc(N3CCN(C)CC3)nc(Sc3ccc(NC(=O)C4CC4)cc3)n2)n[nH]1 [VX-680 (Tozasertib, MK-0457)] | – | – | –
